Reference: patent US11529341B2, “Bicyclic compounds as inhibitors of PD1/PD-L1 interaction/activation” (JUBILANT PRODEL LLC, priority 2018, dated 2022)
pIC50: −log10 of the molar value.

Molecular target: T1, PD-1/PD-L1 interaction (Homo sapiens, UniProt Q9NZQ7)
T1 construct: Tag1 (undisclosed kit tag); purchased CisBio 63ADK000CPAPEG
Test: PD-1/PD-L1 Homogenous Time-Resolved Fluorescence (HTRF) binding assay (CisBio kit)
Conditions: Biochemical PD1/PD-L1 inhibition
Method in brief: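 Tagged PD-L1 and PD-1 proteins preincubated with compound 15 min, then anti-Tag1-Eu3+ donor and anti-Tag2-XL665 acceptor added, 1 h at room temperature. Emission read at 665 and 620 nm; signal expressed as HTRF ratio (665/620)×10^4, loss of signal indicating blocked binding.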

T1 sequence (Q9NZQ7 19-238 limits assumed): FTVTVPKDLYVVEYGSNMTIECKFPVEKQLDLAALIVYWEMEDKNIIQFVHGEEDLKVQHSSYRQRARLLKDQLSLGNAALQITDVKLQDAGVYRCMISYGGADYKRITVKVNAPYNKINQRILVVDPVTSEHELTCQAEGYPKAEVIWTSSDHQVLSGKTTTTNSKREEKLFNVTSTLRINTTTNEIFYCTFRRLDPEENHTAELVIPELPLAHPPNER

pIC50: > 7.00
SMILES: COc1cc(OCc2cccc(-c3ccccc3)c2C)c2c(c1CN1CCOC[C@H]1C(=O)O)CCC2 [Compound 98, (S)-4-((5-methoxy-7-((2-methyl-[1,1′-biphenyl]-3-yl)methoxy)-2,3-dihydro-1H-inden-4-yl)methyl)morpholine-3-carboxylic acid]
